Assay results: patent US20150259331A1, “PROTOZOAN PARASITE GROWTH INHIBITORS” (Northeastern University, priority 2014, published 2015)
Read-outs that look alike come from different tables or passages of the source. Marks after values point to notes of the source that are not given here.

Tests used:
[1] = system: T. brucei brucei Lister 427; assay: Trypanosome replication assay; format: cell-based, Trypanosoma brucei brucei; settings: 48 h, values ±7%
Protocol: Then 2 μL of DMSO (control) or different concentrations of drugs prepared from 200× DMSO stocks were added to the cultures. Cells were incubated at 37° C. for 48 h and counted with a hemocytometer. […] All experiments were repeated thrice in independent studies where each dose was administered in duplicate (total n=6). HepG2 Cell Toxicity Assay. The 384 well MTT cytotoxicity assay is a modification of the MTT method described by Ferrari et al. optimized for 384-well throughput, with modifications described below.

T. cruzi = T. cruzi growth inhibition; format: cell-based, Trypanosoma cruzi
L. major promastigote = L. major promastigote assay; format: cell-based
L. major amastigote = L. major amastigote assay; format: cell-based
P. falciparum D6 = P. falciparum D6 assay; format: cell-based; settings: strain D6
P. falciparum W2 = P. falciparum W2 assay; format: cell-based
P. falciparum C235 = P. falciparum C235 assay; format: cell-based; settings: read-out: P. falciparum C235 (EC50)
[2] = concentration giving 50% inhibition of growth of T brucei brucei Lister 427 cells, read-out: Tbb EC50
[3] = Trypanosoma brucei, concentration giving 50% inhibition of growth of T brucei brucei Lister 427 cells, read-out: Tbb EC50
[4] = Trypanosoma brucei, read-out: Tbb EC50, concentration giving 50% inhibition of growth of T brucei brucei Lister 427 cells
[5] = strain W2, read-out: P. falciparum W2 (EC50)
[6] = Plasmodium falciparum, strain W2, read-out: P. falciparum W2 (EC50)
[7] = Plasmodium falciparum, strain C235

Compound	EC50 [1, 2]	EC50 (L. major promastigote)	EC50 (L. major amastigote)	EC50 (P. falciparum D6)	EC50 (P. falciparum W2; [5])	EC50 (P. falciparum C235; strain C235)	also measured
CCCS(=O)(=O)CCNCc1ccc(-c2ccc3ncnc(Nc4ccc(OCc5cccc(F)c5)c(Cl)c4)c3c2)o1 [Compound 3, reference compound]	430 nM	–	–	–	–	–	–
CC(C)S(=O)(=O)CCNCc1ccc(-c2ccc3ncnc(Nc4ccc(OCc5cccc(F)c5)c(Cl)c4)c3c2)o1 [Compound 4, reference compound]	480 nM	–	–	–	–	–	–
CS(=O)(=O)CCNCc1ccc(-c2ccc3ncnc(Nc4ccc(OCc5ccccc5)c(Br)c4)c3c2)o1 [Compound 7, reference compound]	560 nM	–	–	–	–	–	–
CS(=O)(=O)CCN(Cc1ccccc1)Cc1ccc(-c2ccc3ncnc(Nc4ccc(OCc5cccc(F)c5)c(Cl)c4)c3c2)o1 [Compound 9, reference compound]	1510 nM	–	–	–	–	–	–
Cc1ccc(-c2ccc3ncnc(Nc4ccc(OCc5cccc(F)c5)c(Cl)c4)c3c2)c2ccccc12 [Compound 10b, N-(3-Chloro-4-((3-fluorobenzyl)oxy)phenyl)-6-(4-methylnaphthalen-1-yl)quinazolin-4-amine]	–	–	–	–	–	–	EC50 [1, 3]: 2270 nM
CCNC(=O)c1ccc(-c2ccc3ncnc(Nc4ccc(OCc5cccc(F)c5)c(Cl)c4)c3c2)cc1F [Compound 10c, 4-(4-4-((3-Chloro-4-((3-fluorobenzyl)oxy)phenyl)amino)-quinazolin-6-yl)-N-ethyl-2-fluorobenzamide]	3850 nM	–	–	–	–	–	–
Cc1nnc(-c2cccc(-c3ccc4ncnc(Nc5ccc(OCc6cccc(F)c6)c(Cl)c5)c4c3)c2)o1 [Compound 10d, N-(3-Chloro-4-((3-fluorobenzyl)oxy)phenyl)-6-(3-(5-methyl-1,3,4-oxadiazol-2-1)phenyl)quinazolin-4-amine]	4210 nM	–	–	–	–	–	–
O=C(NC1CC1)c1cccc(-c2ccc3ncnc(Nc4ccc(OCc5cccc(F)c5)c(Cl)c4)c3c2)c1 [Compound 10e, 3-(4-((3-Chloro-4-((3-fluorobenzyl)oxy)phenyl)amino)-quinazolin-6-yl)-N-cyclopropylbenzamide]	–	–	–	–	–	–	EC50 [1, 3]: 4500 nM
Fc1cccc(COc2ccc(Nc3ncnc4ccc(-c5cccc6ncccc56)cc34)cc2Cl)c1 [Compound 10f, N-(3-Chloro-4-((3-fluorobenzyl)oxy)phenyl)-6-(quinolin-5-yl)quinazolin-4-amine]	–	–	–	–	–	–	EC50 [1, 3]: 4530 nM
Fc1cccc(COc2ccc(Nc3ncnc4ccc(-c5ccccc5Oc5ccccc5)cc34)cc2Cl)c1 [Compound 10g, N-(3-Chloro-4-((3-fluorobenzyl)oxy)phenyl)-6-(2-phenoxyphenyl)quinazolin-4-amine]	–	–	–	–	–	–	EC50 [1, 3]: 5300 nM
Fc1cccc(COc2ccc(Nc3ncnc4ccc(-c5cc6ccccc6s5)cc34)cc2Cl)c1 [Compound 10h, 6-(Benzo[b]thiopen-2-yl)-N-(3-chloro-4-((3-fluorobenzyl)-oxy)phenyl)quinazolin-4-amine]	5980 nM	–	–	–	–	–	–
Oc1ccc(-c2ccc3ncnc(Nc4ccc(OCc5cccc(F)c5)c(Cl)c4)c3c2)cc1 [Compound 10i, 4-(4-((3-Chloro-4-((3-fluorobenzyl)oxy)phenyl)amino)-quinazolin-6-yl)phenol]	–	–	–	–	–	–	EC50 [1, 4]: 6450 nM
O=c1[nH]cc(-c2ccc3ncnc(Nc4ccc(OCc5cccc(F)c5)c(Cl)c4)c3c2)c(=O)[nH]1 [Compound 10j]	22600 nM	–	–	–	–	–	–
CC(C)(C)NS(=O)(=O)c1ccccc1-c1ccc2ncnc(Nc3ccc(OCc4cccc(F)c4)c(Cl)c3)c2c1 [Compound 10w, N-(tert-Butyl)-2-(4-((3-chloro-4-((3-fluorobenzyl)oxy)-phenyl)amino)quinazolin-6-yl)benzenesulfonamide]	–	–	–	–	–	–	EC50 [1, 3]: 4660 nM; EC50 ([1]; concentration giving 50% inhibition of growth of T brucei brucei Lister 427 cells, listed as NEU-620, read-out: Tbb EC50): 4700 nM; EC50 (T. cruzi; Trypanosoma cruzi): 6400 nM
Cl.O=S(=O)(c1ccc(-c2ccc3ncnc(Nc4ccc(OCc5ccccc5F)c(Cl)c4)c3c2)cc1)N1CCOCC1 [Compound 20i]	–	–	–	–	–	–	T. cruzi % inh at 10 μM (T. cruzi): 10%
Fc1cccc(COc2ccc(Nc3ncnc4ccc(-c5cccc(CN6CCOCC6)c5)cc34)cc2Cl)c1 [Compound 23c]	360 nM	3300 nM	3000 nM	190 nM	350 nM	290 nM	EC50 (T. cruzi): 2400 nM
O=C(c1cccc(-c2ccc3ncnc(Nc4ccc(OCc5cccc(F)c5)c(Cl)c4)c3c2)c1)N1CCOCC1 [Compound 23e, (3-(4-((3-Chloro-4-((3-fluorobenzyl)oxy)phenyl)amino)-quinazolin-6-yl)phenyl)(morpholino)methanone]	–	–	–	–	–	–	EC50 [1, 3]: 550 nM; EC50 (T. cruzi; Trypanosoma cruzi): 3500 nM; EC50 (L. major promastigote; Leishmania major): 3000 nM; EC50 (L. major amastigote; Leishmania major): > 15000 nM; EC50 (P. falciparum D6; Plasmodium falciparum): 760 nM; EC50 (P. falciparum W2; [6]): 1100 nM; EC50 (P. falciparum C235; [7]): 1200 nM
O=C(c1ccc(-c2ccc3ncnc(Nc4ccc(OCc5cccc(F)c5)c(Cl)c4)c3c2)cc1)N1CCOCC1 [Compound 23f, (4-(4-((3-Chloro-4-((3-fluorobenzyl)oxy)phenyl)amino)-quinazolin-6-yl)phenyl)(morpholino)methanone]	–	–	–	–	–	–	EC50 [1, 3]: 1210 nM; EC50 ([1]; concentration giving 50% inhibition of growth of T brucei brucei Lister 427 cells, listed as NEU-783, read-out: Tbb EC50): 1200 nM; EC50 (T. cruzi; Trypanosoma cruzi): 2800 nM; EC50 (L. major promastigote; Leishmania major): 850 nM; EC50 (L. major amastigote; Leishmania major): 1400 nM; EC50 (P. falciparum D6; Plasmodium falciparum): 400 nM; EC50 (P. falciparum W2; [6]): 860 nM; EC50 (P. falciparum C235; [7]): 610 nM
Fc1cccc(COc2ccc(Nc3ncnc4ccc(-c5ccc(N6CCCCC6)cc5)cc34)cc2Cl)c1 [Compound 23h, N-(3-Chloro-4-((3-fluorobenzyl)oxy)phenyl)-6-(4-(piperidin-1-yl)phenyl)quinazolin-4-amine]	–	–	–	–	–	–	EC50 [1, 4]: 380 nM; EC50 (T. cruzi; Trypanosoma cruzi): 7200 nM; EC50 (L. major promastigote; Leishmania major): > 15000 nM; EC50 (L. major amastigote; Leishmania major): 5000 nM; EC50 (P. falciparum D6; Plasmodium falciparum): 580 nM; EC50 (P. falciparum W2; Plasmodium falciparum, W2, read-out: P. falciparum W2 (EC50)): 1200 nM; EC50 (P. falciparum C235; Plasmodium falciparum): 1000 nM
Fc1cccc(COc2ccc(Nc3ncnc4ccc(-c5cccc(CN6CCCCC6)c5)cc34)cc2Cl)c1 [Compound 23i]	650 nM	2500 nM	3500 nM	39 nM	73 nM	65 nM	EC50 (T. cruzi): 1500 nM
Fc1cccc(COc2ccc(Nc3ncnc4ccc(-c5ccc(CN6CCCCC6)cc5)cc34)cc2Cl)c1 [Compound 23j]	1500 nM	8400 nM	5500 nM	68 nM	110 nM	91 nM	EC50 (T. cruzi): 3400 nM
O=C(c1ccc(-c2ccc3ncnc(Nc4ccc(OCc5cccc(F)c5)c(Cl)c4)c3c2)cc1)N1CCCCC1 [Compound 23l, (4-(4-((3-Chloro-4-((3-fluorobenzyl)oxy)phenyl)amino)-quinazolin-6-yl)phenyl)(piperidin-1-yl)methanone]	–	–	–	–	–	–	EC50 [1, 3]: 940 nM; EC50 (T. cruzi; Trypanosoma cruzi): > 50000 nM; EC50 (L. major promastigote; Leishmania major): 1000 nM; EC50 (L. major amastigote; Leishmania major): 2900 nM; EC50 (P. falciparum D6; Plasmodium falciparum): 250 nM; EC50 (P. falciparum W2; [6]): 880 nM; EC50 (P. falciparum C235; [7]): 360 nM
O=C(c1cccc(-c2ccc3ncnc(Nc4ccc(OCc5cccc(F)c5)c(Cl)c4)c3c2)c1)N1CCCC1 [NEU-618]	520 nM	> 15000 nM	> 15000 nM	69 nM	90 nM	90 nM	T. cruzi % inh at 10 μM (T. cruzi): (7)* %
CC(C)(C)OC(=O)N1CCN(S(=O)(=O)c2ccc(-c3ccc4ncnc(Nc5ccc(OCc6cccc(F)c6)c(Cl)c5)c4c3)cc2)CC1 [NEU-624]	1000 nM	14000 nM	14000 nM	270 nM	580 nM	430 nM	T. cruzi % inh at 10 μM (T. cruzi): (5)* %
Cc1cc(-c2ccc3ncnc(Nc4ccc(OCc5cccc(F)c5)c(Cl)c4)c3c2)cnc1N1CCOCC1 [NEU-632]	1000 nM	3600 nM	1100 nM	260 nM	540 nM	360 nM	T. cruzi % inh at 10 μM (T. cruzi): 49%
CC(C)(C)OC(=O)N1CCN(c2ccc(-c3ccc4ncnc(Nc5ccc(OCc6cccc(F)c6)c(Cl)c5)c4c3)cc2)CC1 [NEU-634]	6000 nM	3100 nM	3100 nM	860 nM	3200 nM	1100 nM	T. cruzi % inh at 10 μM (T. cruzi): (8)* %
O=C(c1cncc(-c2ccc3ncnc(Nc4ccc(OCc5cccc(F)c5)c(Cl)c4)c3c2)c1)N1CCOCC1 [NEU-640]	340 nM	> 15000 nM	> 15000 nM	370 nM	630 nM	500 nM	T. cruzi % inh at 10 μM (T. cruzi): −2%
Fc1cccc(COc2ccc(Nc3ncnc4ccc(-c5ccccc5)cc34)cc2Cl)c1 [NEU-706]	3900 nM	4000 nM	22000 nM	790 nM	2600 nM	1200 nM	EC50 (T. cruzi): 1800 nM
CN(C)c1cccc(-c2ccc3ncnc(Nc4ccc(OCc5cccc(F)c5)c(Cl)c4)c3c2)c1 [NEU-708]	2200 nM	> 15000 nM	> 15000 nM	460 nM	1400 nM	550 nM	T. cruzi % inh at 10 μM (T. cruzi): (58)* %
Fc1cccc(COc2ccc(Nc3ncnc4ccc(-c5cccc(N6CCNCC6)c5)cc34)cc2Cl)c1 [NEU-711]	250 nM	–	–	–	–	–	EC50 (T. cruzi): 2200 nM
